From ChEMBL document CHEMBL4414606, “Bioactive Streptoglutarimides A-J from the Marine-Derived Streptomyces sp. ZZ741” (J Nat Prod, 2019)
In brackets after ≈: the same amount, converted by molar mass.

Tests used:
Staphylococcus aureus = test: Antibacterial activity against methicillin resistant Staphylococcus aureus assessed as reduction in bacterial growth incubated for 12 hrs by microdilution method; type: functional
Escherichia coli = test: Antibacterial activity against Escherichia coli assessed as reduction in bacterial growth incubated for 12 hrs by microdilution method; type: functional
Candida albicans = test: Antifungal activity against Candida albicans assessed as reduction in fungal growth incubated for 12 hrs by microdilution method; type: functional
U-87 MG = test: Antiproliferative activity against human U87MG cells assessed as reduction in cell viability after 72 hrs by SRB assay; type: functional, cell-based, U-87MG ATCC
U-251 = test: Antiproliferative activity against human U251 cells assessed as reduction in cell viability after 72 hrs by SRB assay; type: functional, cell-based
[1] = Homo sapiens, U-87 MG, 72 h, read-out: IC50
[2] = Homo sapiens, U-251, 72 h, read-out: IC50

With `C[C@@H]1C[C@@H]([C@H](O)CC2CC(=O)NC(=O)C2)C(=O)[C@@H](C)[C@@H]1O` the MIC (Staphylococcus aureus) was 9 µg/mL (≈ 30.3 µM), the MIC (Escherichia coli) was 10 µg/mL (≈ 33.6 µM) and the MIC (Candida albicans) was 15 µg/mL (≈ 50.4 µM). It also gave an IC50 (U-87 MG; [1]) of 3800 nM and an IC50 (U-251; [2]) of 1500 nM.

For `C[C@H](CO)[C@@H]1OC(CC2CC(=O)NC(=O)C2)=CC(=O)[C@H]1C`, the MIC (Staphylococcus aureus) was 10 µg/mL (≈ 33.9 µM), the MIC (Escherichia coli) was 12 µg/mL (≈ 40.6 µM) and the MIC (Candida albicans) was 18 µg/mL (≈ 60.9 µM). For the same compound, the IC50 (U-87 MG; u-87mg atcc) was “Not Active” and the IC50 (U-251; u-251) was “Not Active”.

`C[C@@H]1[C@H](O)[C@@H](C)/C=C/C=C/C=C/C=C/C=C/C=C/C=C/[C@H](O[C@@H]2O[C@H](C)[C@@H](O)[C@H](N)[C@@H]2O)C[C@@H]2O[C@](O)(C[C@@H](O)C[C@@H](O)[C@H](O)CC[C@@H](O)C[C@@H](O)CC(=O)O[C@H]1C)C[C@H](O)[C@H]2C(=O)O` [AMPHOTERICIN B] was tested, and the MIC (Candida albicans) was 0.75 µg/mL (≈ 0.812 µM).

For GENTAMICIN, the MIC (Escherichia coli) was 1.25 µg/mL.

`COc1cccc2c1C(=O)c1c(O)c3c(c(O)c1C2=O)C[C@@](O)(C(=O)CO)C[C@@H]3O[C@H]1C[C@H](N)[C@H](O)[C@H](C)O1` [DOXORUBICIN] gave an IC50 (U-87 MG; [1]) of 1600 nM and an IC50 (U-251; [2]) of 6800 nM.

With `C[C@@H]1C[C@](C)(CO)O/C1=C\C(=O)CC1CC(=O)NC(=O)C1` the MIC (Staphylococcus aureus) was 9 µg/mL (≈ 30.5 µM), the MIC (Escherichia coli) was 9 µg/mL (≈ 30.5 µM) and the MIC (Candida albicans) was 16 µg/mL (≈ 54.2 µM). For the same compound, the IC50 (U-87 MG; u-87mg atcc) was “Not Active” and the IC50 (U-251; u-251) was “Not Active”.

In the case of `C[C@H]1C[C@H]([C@H](O)CC2CC(=O)NC(=O)C2)C(=O)[C@@](C)(O)C1`, the MIC (Staphylococcus aureus) is reported as 11 µg/mL (≈ 37 µM), the MIC (Escherichia coli) is reported as 9 µg/mL (≈ 30.3 µM) and the MIC (Candida albicans) is reported as 12 µg/mL (≈ 40.4 µM). The IC50 (U-87 MG; u-87mg atcc) was “Not Active” and the IC50 (U-251; u-251) was “Not Active”.

`C[C@H](CO)C[C@@]1(C)OC(CC2CC(=O)NC(=O)C2)=CC1=O` showed an MIC (Staphylococcus aureus) of 10 µg/mL (≈ 33.9 µM), an MIC (Escherichia coli) of 8 µg/mL (≈ 27.1 µM) and an MIC (Candida albicans) of 8 µg/mL (≈ 27.1 µM). The IC50 (U-87 MG; u-87mg atcc) was “Not Active” and the IC50 (U-251; u-251) was “Not Active”.

Work on `CN[C@H](CC(C)C)C(=O)N[C@H]1C(=O)N[C@@H](CC(N)=O)C(=O)N[C@H]2C(=O)N[C@H]3C(=O)N[C@H](C(=O)N[C@H](C(=O)O)c4cc(O)cc(O)c4-c4cc3ccc4O)[C@H](O)c3ccc(c(Cl)c3)Oc3cc2cc(c3O[C@@H]2O[C@H](CO)[C@@H](O)[C@H](O)[C@H]2O[C@H]2C[C@](C)(N)[C@H](O)[C@H](C)O2)Oc2ccc(cc2Cl)[C@H]1O` [VANCOMYCIN] yielded an MIC (Staphylococcus aureus) of 0.2 µg/mL (≈ 0.138 µM).

`C[C@@H]1C/C(=C/CC2CC(=O)NC(=O)C2)C(=O)[C@@H](C)[C@@H]1O` gave an MIC (Staphylococcus aureus) of 10 µg/mL (≈ 35.8 µM), an MIC (Escherichia coli) of 10 µg/mL (≈ 35.8 µM) and an MIC (Candida albicans) of 18 µg/mL (≈ 64.4 µM). For the same compound, the IC50 (U-87 MG; u-87mg atcc) was “Not Active” and the IC50 (U-251; u-251) was “Not Active”.

Work on `C[C@@H]1C[C@@](C)(CO)O/C1=C\C(=O)CC1CC(=O)NC(=O)C1` yielded an MIC (Staphylococcus aureus) of 11 µg/mL (≈ 37.2 µM), an MIC (Escherichia coli) of 9 µg/mL (≈ 30.5 µM) and an MIC (Candida albicans) of 20 µg/mL (≈ 67.7 µM). For the same compound, the IC50 (U-87 MG; u-87mg atcc) was “Not Active” and the IC50 (U-251; u-251) was “Not Active”.

With `CC1=C[C@@](C)(CO)O/C1=C\C(=O)CC1CC(=O)NC(=O)C1` the MIC (Staphylococcus aureus) was 10 µg/mL (≈ 34.1 µM), the MIC (Escherichia coli) was 8 µg/mL (≈ 27.3 µM) and the MIC (Candida albicans) was 15 µg/mL (≈ 51.1 µM). The IC50 (U-87 MG; u-87mg atcc) was “Not Active” and the IC50 (U-251; u-251) was “Not Active”.

`C[C@H]1C[C@@](C)(O)C[C@@H]([C@H](O)CC2CC(=O)NC(=O)C2)C1=O` showed an MIC (Staphylococcus aureus) of 10 µg/mL (≈ 33.6 µM), an MIC (Escherichia coli) of 10 µg/mL (≈ 33.6 µM) and an MIC (Candida albicans) of 18 µg/mL (≈ 60.5 µM). The IC50 (U-87 MG; [1]) was 220 nM and the IC50 (U-251; [2]) was 50 nM.

`C[C@H](CO)C[C@@]1(C)OC(CC2(O)CC(=O)NC(=O)C2)=CC1=O` showed an MIC (Staphylococcus aureus) of 9 µg/mL (≈ 28.9 µM), an MIC (Escherichia coli) of 10 µg/mL (≈ 32.1 µM) and an MIC (Candida albicans) of 20 µg/mL (≈ 64.2 µM). The IC50 (U-87 MG; u-87mg atcc) was “Not Active” and the IC50 (U-251; u-251) was “Not Active”.

Work on `C[C@](O)(CO)C[C@@]1(C)OC(CC2CC(=O)NC(=O)C2)=CC1=O` yielded an MIC (Staphylococcus aureus) of 10 µg/mL (≈ 32.1 µM), an MIC (Escherichia coli) of 12 µg/mL (≈ 38.5 µM) and an MIC (Candida albicans) of 18 µg/mL (≈ 57.8 µM). The IC50 (U-87 MG; u-87mg atcc) was “Not Active” and the IC50 (U-251; u-251) was “Not Active”.
